{
  "source": "patent US10766912B2",
  "about": "(priority 2017, dated 2020)",
  "key": {"[1]": {"tested_on": "HCV GT1b/5a NS5A chimeric replicon", "experiment": "Assay Example 2: activity against GT1b/5a NS5A chimeric replicon", "type": "cell-based", "conditions": "Hepatitis C virus, Huh-7, 72 h, read-out: EC50 Value GT1b/5a-NS5A-wt", "method": "Cells: Huh-7 cells are liver cancer cell strains (from AppTec, USA), HCV GT1a and GT1b wild type (wt) replicons, GT1b/3a, GT1b/4a, GT1b/5a and GT1b/6a NS5A chimeric replicons.\nTreatment of Compound: According to the assay final concentrations of the compounds in Table 5, DMSO stock solutions of the compounds were diluted and then added to a 96-well assay plate. The final concentration of DMSO was 0.5%.\n(§1) The preparation of cells: After replicon plasmid DNA was linearized with a corresponding restriction enzyme, the DNA was transcribed into RNA by using T7 RNA polymerase. Replicon RNA prepared by transcription in vitro was transfected into Huh-7 cells by electroporation. Transfected cells were seeded at a density of 10,000 cells per well into the 96-well assay plate containing the diluted compounds, and then placed in a 37° C. incubator with 5% CO2 and cultured for 3 days.\n(§2) Drug activity assay: Luminescence signal value (RLU) was detected with Envision within 15 minutes using the luciferase assay reagent Britelite plus, and the original data (RLU) was used for the calculation of the activity of the compounds.\nThe cytotoxicity of the compounds was calculated by using the equation below: Cell Viability %=(CPD−HPE)/(ZPE−HPE)×100%* The activity of the compounds was calculated by using the equation below: Inhibition %=(ZPE−CPD)/(ZPE−HPE)×100%*\n(§3) The cell viability percentages (Viability %) and the inhibition percentages (Inhibition %) were imported into GraphPad Prism software, respectively, and curves were fitted by using nonlinear regression method to obtain the corresponding curves of the compounds, and the cytotoxicity (CC50) thereof and the inhibitory activity (EC50) values against the HCV replicon thereof."}, "[2]": {"tested_on": "HCV GT1b/3a NS5A chimeric replicon", "experiment": "Assay Example 1: activity against HCV GT1b/3a NS5A chimeric replicon", "type": "cell-based", "conditions": "Hepatitis C virus, Huh-7, 72 h, read-out: EC50 value GT1b/3a NS5A chimeric replicon", "method": "(§4) Cells: Huh 7 cell line and HCV GT1b/3a and GT1b/6a NS5A chimeric replicons and GT1b and GT1a wild-type replicon RNA.\n(§5) Treatment of Compound: According to the assay final concentrations of the compounds in Table 2, DMSO stock solutions of the compounds were diluted and then added to a 96-well assay plate. The final concentration of DMSO was 0.5%.\nas §1, with “T7RNA” for “T7 RNA”, “then the plate was” for “then”\nas §2\n(§6) The activity of the compounds was calculated by using the equation below: Inhibition %=(ZPE−CPD)/(ZPE−HPE)×100%*\nas §3, with “thereof and inhibitory activity” for “thereof and the inhibitory activity”"}, "[3]": {"experiment": "Assay Example 3: parallel cytotoxicity assay (alamarBlue) without viral infection", "type": "cell-based", "conditions": "human, Huh7.5.1 cells without viral infection, no viral infection, read-out: CC50 Value HCVcc", "method": "Cells: Huh7.5.1 cells and hepatitis C virus HCVcc (GT2a, JFH-1) infection system.\nTreatment of Compound: According to the assay final concentrations of the compounds in Table 6, DMSO stock solutions of the compounds were diluted and then added to a 96-well assay plate. The final concentration of DMSO was 0.5%.\nViral infection: Huh7.5.1 cells were seeded in a 96-well cell culture plate, and the cells were cultured overnight at 37° C. in an incubator with 5% CO2 for later use. The compound and the HCVcc virus solution (MOI=0.1) were simultaneously added to the cells, and the virus infection was cultured for 3 days. Parallel cytotoxicity assay was identical to the method for the inhibition of the virus but without viral infection.\nCell viability assay: Cell viability was detected by the addition of alamarBlue assay reagent. The original data (RFU) was used for the calculation of the cytotoxicity of the compounds.\nThe cytotoxicity of the compounds was calculated by using the equation below: Cell Viability %=CPD/CC×100%*\nThe cell viability percentages (Cell Viability %) and the compound activity percentages (Inhibition %) were imported into GraphPad Prism software, respectively, and curves were fitted by using nonlinear regression method to obtain the corresponding curves of the compounds, and the cytotoxicity (CC50) thereof and inhibitory activity (EC50) values against the HCV replicon thereof."}, "[4]": {"tested_on": "HCV GT1b/6a NS5A chimeric replicon", "experiment": "Assay Example 1: activity against HCV GT1b/6a NS5A chimeric replicon", "type": "cell-based", "conditions": "Hepatitis C virus, Huh-7, 72 h, read-out: EC50 value GT1b/6a NS5A chimeric replicon", "method": "as §4, §5\nas §1, with “T7RNA” for “T7 RNA”, “then the plate was” for “then”\nas §2, §6\nas §3, with “thereof and inhibitory activity” for “thereof and the inhibitory activity”"}, "[5]": {"experiment": "Assay Example 4: distribution in rat plasma and liver tissue", "type": "in vivo", "conditions": "10 mg/kg intragastric; for Kp at 0.5 h / Kp at 3 h / Kp at 8 h: male, oral, liver/plasma, read-out: Ratio (L/P)", "method": "Eighteen male rats were randomly divided into two groups of 9 rats each, fasted (free access to water) overnight, and then intragastrically administered with 10 mg/kg of Compound 1a and Compound 6b, respectively. The subject animals were sacrificed by bloodletting at 0.5 h, 3 h and 8 h after administration. About 1 mL of blood was taken, and anticoagulated with EDTA-K2. The blood samples were immediately placed in ice, and then transferred within 30 min to centrifuge and separate plasma at 4° C. and 4,000 rpm for 10 min. Meanwhile, the whole liver was taken out at the various time points, rinsed with ice-cold physiological saline, blotted dry, weighed, and prepared into a homogenate with physiological saline (W/V=1:5). All plasma and liver homogenates were collected and then immediately stored at −20° C. for testing.\nThe rats can be fed at 4 h after administration.\nAfter being completely melted, all the samples were vortexed to mix evenly. 50 μL of the samples were pipetted into a 1.5 mL centrifuge tube respectively and then 300 μL of IS-D (20 ng/ml diazepam acetonitrile) solution was added to each sample (200 μL of acetonitrile was added to the blank sample). The samples were vortexed for 10 min and then centrifuged at 12,000 rpm and 4° C. for 10 min. After 80 μL of pure water was added to a 96-well plate, 80 μL of the supernatants were pipetted respectively from the centrifuge tubes to the 96-well plate, vortexed for 3 min, and then kept at 4° C. until LC-MS/MS injection analysis."}},
  "data": [
    {"smiles": "COC(=O)N[C@H](C(=O)N1CCC[C@H]1C(=O)Nc1ccc([C@@H]2CC[C@@H](c3ccc(NC(=O)[C@@H]4CCCN4C(=O)[C@@H](NC(=O)OC)[C@@H](C)OC)cc3)N2c2cc(F)c(N3CC[Si](C)(C)CC3)c(F)c2)cc1)[C@@H](C)OC", "note": "[Compound 1a, Methyl ((2S,2′S,3R,3′R)-((2S,2′S)-(((((2S,5S)-1-(4-(4,4-dimethylazasilinan-1-yl)-3,5-difluorophenyl)pyrrolidin-2,5-diyl)bis(4,1-phenylene))bis(azanediyl))bis(carbonyl))bis(pyrrolidin-2,1-diyl))bis(3-methoxy-1-oxobutan-1,2-diyl))dicarbamate]", "values": [
      {"measurement": "EC50", "setting": "[1]", "value": 1.62, "unit": "pM"},
      {"measurement": "EC50", "setting": "[2]", "value": 3, "unit": "pM"},
      {"measurement": "CC50 at 3 days", "setting": "[3]", "value": "> 100", "unit": "pM"},
      {"measurement": "EC50", "setting": "[4]", "value": 17, "unit": "pM"},
      {"measurement": "Liver concentration", "setting": "[5]; 0.5 h", "value": "384 ± 121"},
      {"measurement": "Plasma concentration", "setting": "[5]; 0.5 h", "value": "54.7 ± 7.82"},
      {"measurement": "Liver concentration", "setting": "[5]; 3 h", "value": "1711 ± 485"},
      {"measurement": "Plasma concentration", "setting": "[5]; 3 h", "value": "70.1 ± 20.6"},
      {"measurement": "Liver concentration", "setting": "[5]; 8 h", "value": "1087 ± 822"},
      {"measurement": "Plasma concentration", "setting": "[5]; 8 h", "value": "59 ± 33.7"},
      {"measurement": "Kp at 0.5 h", "setting": "[5]; 0.5 h", "value": 7.01},
      {"measurement": "Kp at 3 h", "setting": "[5]; 3 h", "value": 24.4},
      {"measurement": "Kp at 8 h", "setting": "[5]; 8 h", "value": 18.4}
    ]},
    {"smiles": "COC(=O)N[C@H](C(=O)N1CCC[C@H]1C(=O)Nc1ccc([C@H]2CC[C@H](c3ccc4nc([C@@H]5CCCN5C(=O)[C@@H](NC(=O)OC)[C@@H](C)OC)[nH]c4c3)N2c2cc(F)c(N3CC[Si](C)(C)CC3)c(F)c2)cc1)[C@@H](C)OC", "note": "[Compound 6b]", "values": [
      {"measurement": "EC50", "setting": "[1]", "value": 4.32, "unit": "pM"},
      {"measurement": "EC50", "setting": "[2]", "value": 2.4, "unit": "pM"},
      {"measurement": "CC50 at 3 days", "setting": "[3]", "value": "> 100", "unit": "pM"},
      {"measurement": "EC50", "setting": "[4]", "value": 5.4, "unit": "pM"},
      {"measurement": "Liver concentration", "setting": "[5]; 0.5 h", "value": "212 ± 57.2"},
      {"measurement": "Plasma concentration", "setting": "[5]; 0.5 h", "value": "19.8 ± 8.31"},
      {"measurement": "Liver concentration", "setting": "[5]; 3 h", "value": "495 ± 171"},
      {"measurement": "Plasma concentration", "setting": "[5]; 3 h", "value": "34.8 ± 14.7"},
      {"measurement": "Liver concentration", "setting": "[5]; 8 h", "value": "77.5 ± 20.6"},
      {"measurement": "Plasma concentration", "setting": "[5]; 8 h", "value": "5.82 ± 0.99"},
      {"measurement": "Kp at 0.5 h", "setting": "[5]; 0.5 h", "value": 10.7},
      {"measurement": "Kp at 3 h", "setting": "[5]; 3 h", "value": 14.2},
      {"measurement": "Kp at 8 h", "setting": "[5]; 8 h", "value": 13.3}
    ]}
  ]
}
